According to US20230404989A1, “GRK2 INHIBITION BY PAROXETINE AMELIORATES OSTEOARTHRITIS” (THE PENN STATE RESEARCH FOUNDATION, priority 2020, published 2023):
Entries after “also recorded” stand apart in the source; their conditions may differ.

Tests used:
DMM mice [1] = experiment: DMM drug treatment study: OARSI scoring and histomorphometry of knee cartilage; format: in vivo, mouse; details: for cartilage degeneration (Safranin-O and Fast Green histology) / chondro-protective and matrix-regenerative effects (overall) / total number of chondrocytes / uncalcified cartilage area: daily ip week 8 to 12; for OARSI score / number of matrix producing chondrocytes: daily ip week 8 to 12, versus vehicle
Procedure: Drug treatment studies: In twelve-week old male wild type C57BL/6 mice that received DMM surgeries, vehicle (PBS), paroxetine (5 mg/kg/day), fluoxetine (5 mg/kg/day), gallein (10 mg/kg/day) or indomethacin (2.5 mg/kg/day) were administered daily by ip injection. Drug treatment was initiated 8 weeks following DMM to determine the role of GRK2 signaling in the progression of OA.
Twelve-week-old male mice were administered DMM surgery to the right knee and sham surgery to the left knee as described (S. S. Glasson, Osteoarthritis. Cartilage. 15, 1061-1069 (2007)). Briefly, mice were anesthetized via intraperitoneal injection of ketamine (60 mg/kg) and xylazine (4 mg/kg), and a 5-mm-long incision was made on the medial side of the knee. Under a dissecting microscope, an incision was made along the medial side of the patellar tendon, opening the joint space. Using a #11 scalpel, the medial meniscotibial ligament (MMTL) was transected, enabling the medial meniscus to move freely. A similar skin incision was made in sham knees, but the joint structure was not disturbed. For the sham group, both right and left knees had sham surgeries. After surgery, 4-0 silk sutures were used to close the incision using an interrupted pattern. Mice were provided analgesia via intraperitoneal injection of buprenorphine (0.5 mg/kg) every 12 hours for 72 hours, and sutures were removed after 7 days. Mice were sacrificed, at the indicated time points, by anesthesia followed with whole animal perfusion using 10% NBF, knees were harvested and fixed for 7 days in 10% NBF, decalcified for 7 days in 10% w/v EDTA, embedded in paraffin, and 10-μm sections were cut and mounted for Safranin-O/Fast Green or IF staining.
Semi-quantitative histopathologic grading was performed using a derivative of the Chambers' scoring system that has been established by the OARSI histopathology initiative as the standard method for grading of mouse cartilage degeneration. Based on this system, cartilage grading was carried out using Safranin-O/Fast Green-stained midsagittal sections. Three sections from representative levels (50 μm apart) of the medial compartment of the joint were selected for each sample and, which were evaluated in a randomized, blinded manner by 3 laboratory members. The 3 scores were averaged to calculate the section score, and the sample score was then calculated by averaging the scores obtained from the three levels. Grading was performed using the following scale: 0=normal cartilage, 0.5=loss of proteoglycan stain without cartilage damage, 1=mild superficial fibrillation, 2=fibrillation and/or clefting extending below the superficial zone, 3=mild (<25%) loss of cartilage, 4=moderate (25-50%) loss of cartilage, 5=severe (50-75%) loss of uncalcified cartilage, and 6=eburnation with >75% loss of cartilage. Grading was performed by three blinded observers (F.K., M.J.Z., and E.R.S.). Observer agreement was evaluated in pairs via calculation of a weighted kappa coefficient, using Fleiss-Cohen weights, as we have described. The F.K. versus M.J.Z. coefficient was 0.92, the F.K. versus E.R.S. coefficient was 0.94, and the M.J.Z. versus E.R.S coefficient was 0.89, all indicative of strong agreement between the observers.
Using Safranin-O/Fast Green-stained sections, the OsteoMetrics system was used to quantify the above parameters on three sections from representative levels (50 μm apart) of the medial compartment of the joint for each sample. Live images of the center of the knee joint were collected through an Olympus microscope (10× objective) outfitted with a camera, a stylus was used to trace the regions of interest (ROIs). A blinded observer quantified uncalcified articular cartilage area, total chondrocyte number and matrix-producing chondrocyte number using the built-in area calculation algorithms and quantification functions of the OsteoMeasure® system. […]

DMM mice [2] = experiment: Anterior femoral synovial membrane thickness in DMM mice; format: in vivo, mouse; details: daily ip week 8 to 12, versus vehicle
Procedure: Drug treatment studies: In twelve-week old male wild type C57BL/6 mice that received DMM surgeries, vehicle (PBS), paroxetine (5 mg/kg/day), fluoxetine (5 mg/kg/day), gallein (10 mg/kg/day) or indomethacin (2.5 mg/kg/day) were administered daily by ip injection. Drug treatment was initiated 8 weeks following DMM to determine the role of GRK2 signaling in the progression of OA. Using Safranin-O/Fast Green-stained sections, the OsteoMetrics system was used to quantify the above parameters on three sections from representative levels (50 μm apart) of the medial compartment of the joint for each sample. Live images of the center of the knee joint were collected through an Olympus microscope (10× objective) outfitted with a camera, a stylus was used to trace the regions of interest (ROIs). A blinded observer quantified uncalcified articular cartilage area, total chondrocyte number and matrix-producing chondrocyte number using the built-in area calculation algorithms and quantification functions of the OsteoMeasure® system. […] The calcified cartilage was determined with a line drawn along the tide mark, which is the naturally occurring line separating the calcified and uncalcified regions of the articular cartilage. A second line was drawn at the chondro-osseous junction where the calcified cartilage meets the subchondral bone. The uncalcified cartilage area was determined by subtracting the calcified cartilage area from the total area of cartilage. Total chondrocyte number and matrix-producing chondrocyte number were counted within the uncalcified cartilage region using count functions within the histomorphometry system. Matrix-producing chondrocytes were counted based on the region of Safranin-O staining within the extracellular matrix surrounding the articular chondrocyte, indicating anabolic signaling to maintain matrix homeostasis. Similarly, the anterior femoral synovial thickness was measured using OsteoMeasure® software. Synovial membrane thickness extending from anterior horn of the medial meniscus to the femur was determined by drawing a line from the inner insertion point on the femur towards the attachment on the meniscus. A second line was drawn from the outer insertion of the femur towards the attachment to the meniscus. The synovial thickness was calculated by dividing total synovial area by synovial perimeter.

For `O=C1OC2(c3ccccc31)c1ccc(O)c(O)c1Oc1c2ccc(O)c1O` [gallein], the “cartilage degeneration (Safranin-O and Fast Green histology)” value (DMM mice [1]) was “reduced”, the “chondro-protective and matrix-regenerative effects (overall)” value (DMM mice [1]) was “exert both a chondro-protective and a matrix-regenerative effects; also recorded: equivalent to that of paroxetine” and the “total number of chondrocytes” value (DMM mice [1]) was “preserved”. The uncalcified cartilage area (DMM mice [1]) was “preserved”, the OARSI score (DMM mice [1]) was “lower” and the “number of matrix producing chondrocytes” value (DMM mice [1]) was “higher number”. For the same molecule, the synovial membrane thickness (DMM mice [2]) was “as effective as indomethacin”.
For `Fc1ccc([C@@H]2CCNC[C@H]2COc2ccc3c(c2)OCO3)cc1` [paroxetine], the “cartilage degeneration (Safranin-O and Fast Green histology)” value (DMM mice [1]) was “reduced”, the “chondro-protective and matrix-regenerative effects (overall)” value (DMM mice [1]) was “exert both a chondro-protective and a matrix-regenerative effects” and the “total number of chondrocytes” value (DMM mice [1]) was “preserved”. The uncalcified cartilage area (DMM mice [1]) was “preserved”, the OARSI score (DMM mice [1]) was “lower” and the “number of matrix producing chondrocytes” value (DMM mice [1]) was “higher number”. The synovial membrane thickness (DMM mice [2]) was “as effective as indomethacin”.
